Data as given in EP0222578A2, “Use of cyclic somatostatin analogues in the treatment of immediate hypersensitivity diseases” (Merck & Co., Inc., priority 1985, dated 1987).

Tests used:
[1] = tested on: Antigen-Induced Dyspnea in Inbred Rats; assay: Antigen-induced dyspnea in sensitized inbred asthmatic rats challenged with aerosolized egg albumin; assay type: in vivo; conditions: for Duration of Dyspnea in Minutes (Mean±S.D.) n=6/group: 1 mg/kg s.c. 1 hour before antigen challenge; for Inhibition %: inhibition of duration of dyspnea vs vehicle control, 1 mg/kg s.c. 1 hour
Excerpt: Sensitized inbred "asthmatic rats" challenged with aerosolized antigen respond with symptoms of continuous dyspnea which is partly mediated by serotonin. […] These rats differed from normal rats in that they have nonspecific bronchial hyperreactivity to a number of bronchoconstrictor agents (Brunet et al., J. Immun., 131, 434-438 (1983)].
• (1) Animals: Rats were obtained from an inbred line of asthmatic rats that were developed and maintained in local laboratories and later at a local farm. Male and female rats were used between 10-12 weeks of age. Their weights ranged from 220-240 gm (females) and 350-400 gm (males). Rats were matched by sex and littermates between the various treatment groups. • (2) Materials: Egg albumin (EA), grade V, crystallized and lyophilized (Sigma Chemical Co., St. Louis), aluminum hydroxide (Reheis Chemical Company, Chicago), and methysergide bimaleate (Sandoz Ltd., Basel, Switzerland). • (3) Apparatus: The challenge and subsequent respiratory recordings were carried out in a clear plastic box with internal dimensions 10 x 6 x 4 inches. The top of the box was removable; in use, it was held firmly in place by four clamps and an airtight seal was maintained by a soft rubber gasket. Through the centre of each end of the chamber a Devilbiss nebulizer (No. 40) was inserted via an airtight seal and each end of the box was also equipped with an outlet. A Fleisch No. 0000 pneumotachograph was inserted into one end of the box and coupled to a Grass volumetric pressure transducer (PT5-A) which was then connected to a Beckman Type R Dynograph through appropriate couplers. While aerosolizing the antigen, the outlets were open and the pneumotachograph was isolated from the chamber. The outlets were closed and the pneumotachograph and the chamber were connected during the recordings of the respiratory patterns. For challenge, 2 ml of 3% solution of antigen in saline was placed into each nebulizer and the aerosol was generated with air from a small Potter diaphragm pump operating at 10 psi and a flow of 8 litre/minute. • (4) Procedure: Rats were sensitized by injecting (s.c.) 1 ml of suspension containing 1 mg egg albumin (EA) and 200 mg aluminum hydroxide in saline. They were used on day 13 post sensitization. Rats were exposed to aerosol of 3% EA in saline for exatly 1 minute, then their respiratory profiles were recorded for an additional 30 minutes. The duration of continuous dyspnea was measured from the respiratory recordings.
Form.I-8) was administered subcutaneously as a solution in 5% mannitol 1 hour prior to challenge with antigen. Methysergide bimaleate was dissolved in saline and given intravenously at dose of 3 ug/kg 5 minutes before challenge. Dose volume employed for subcutaneous treatments was 2 ml/kg and for i.v. treatments 1 ml/kg. Control groups of rats (n-6) were treated subcutaneously with drug vehicle (5% mannitol).
The sensitivity of various drug treatments were determined in terms of the decrease in duration of dyspnea in comparison with a group of vehicle- treated controls. Comparisons between groups were made using the Student's t-test.

[2] = tested on: Antigen-Induced Dyspnea in Inbred Rats; conditions: 3 µg/kg i.v. before challenge; background statement in the introduction; cited from earlier work

With `CC(C)[C@@H]1NC(=O)[C@H](CCCCN)NC(=O)[C@@H](Cc2c[nH]c3ccccc23)NC(=O)[C@H](Cc2ccc(O)cc2)NC(=O)[C@H](C)N(C)C(=O)[C@H](Cc2ccccc2)NC1=O` [Form.I-8), Cycle-(N-Me-Ala-Tyr-D-Trp-Lys-Val-Phe)] the “Duration of Dyspnea in Minutes (Mean±S.D.) n=6/group” value ([1]; + Methysergide (3 µg/kg i.v. 5 minutes prior to challenge)) was 5.7 ± 3.9 min, the “Duration of Dyspnea in Minutes (Mean±S.D.) n=6/group” value ([1]; - Methysergide) was 18.2 ± 3.6 min and the “activity on duration of antigen-induced dyspnea” value ([1]; 1 mg/kg s.c., without methysergide to block the serotonin component) was “failed to produce activity”. The Inhibition % ([1]; + Methysergide (3 µg/kg i.v. 5 minutes prior to challenge), p < 0.01) was 57 p < 0.01%, the Inhibition % ([1]; + Methysergide (3 µg/kg i.v. 5 minutes prior to challenge); p < 0.01; listed as Form.1-8)) was 57% and the Inhibition % ([1]; - Methysergide) was 0%.

In the case of `CC[C@@H](CO)NC(=O)[C@@H]1C=C2c3cccc4c3c(cn4C)C[C@H]2N(C)C1` [methysergide, methysergide bimaleate], the “serotonin component of continuous dyspnea” value [2] is given as “completely blocked”.
